These results are taken from the supplement of paper PMC3493320.

Each structure is given as a SMILES string.

The test system of the test is NCI-H295R. Description: IC50 (antiproliferative, ATP content). Particulars: 48 h. The method in brief:
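Serum-free ITS-supplemented DMEM was used to seed 1500 adrenocortical carcinoma cells per well in 1536-well plates, which were cultured overnight. Eight final concentrations of each library compound, from 0.6 nM to 46 µM, were added by pin transfer, followed by 48 h at 37 °C in 5% CO2 and a CellTiter-Glo ATP read after 20 min at room temperature. Luminescence was set against vehicle and positive-control wells, and the IC50 was obtained by logistic curve fitting. Any compound with no concentration response was entered as above the top dose.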
For `CCOC(=O)[C@@H](N)CS.Cl`, the IC50 – broadly, the concentration that inhibits the measured activity by half – was more than 46 µM.

`CN1C(=O)CC(=O)N(c2ccccc2)c2cc(Cl)ccc21` came in with an IC50 of more than 46 µM.

Regarding `COc1nccnc1NS(=O)(=O)c1ccc(N)cc1`, the concentration for half-maximal inhibition (IC50) was more than 46 µM.

Take `CC(COc1ccccc1)NC(C)C(O)c1ccc(O)cc1.Cl` (configuration not stated): the IC50 is more than 46 µM.

As for `O=C([O-])CCCc1ccccc1.[Na+]`, the IC50 is more than 46 µM.

In turn, `CO[C@H]1C[C@H](O[C@H]2[C@H](C)[C@@H](O[C@@H]3O[C@H](C)C[C@H](N(C)C)[C@H]3OC(C)=O)[C@@H](C)C[C@]3(CO3)C(=O)[C@H](C)[C@@H](OC(C)=O)[C@@H](C)[C@@H](C)OC(=O)[C@@H]2C)O[C@@H](C)[C@@H]1OC(C)=O` returned an IC50 of more than 46 µM.

`CCC(C)(CN(C)C)OC(=O)c1ccccc1.Cl` (configuration not stated): the IC50 is more than 46 µM.

The compound `OCCOCCOCCO` had an IC50 of more than 46 µM.

On to `Cc1ccc(C(=O)Nc2ccc(S(=O)(=O)O)c3cc(S(=O)(=O)O)cc(S(=O)(=O)O)c23)cc1NC(=O)c1cccc(NC(=O)Nc2cccc(C(=O)Nc3cc(C(=O)Nc4ccc(S(=O)(=O)O)c5cc(S(=O)(=O)O)cc(S(=O)(=O)O)c45)ccc3C)c2)c1`, for which the half-maximal inhibitory concentration (IC50) was more than 46 µM.

`C=CCN1CCc2nc(N)sc2CC1` gave an IC50 of more than 46 µM.

Take `NCCc1cc[nH]n1`: the IC50 was more than 46 µM.

With `Cl.O=C(NC1CCN(CCc2c[nH]c3ccccc23)CC1)c1ccccc1`, the IC50 was more than 46 µM.

As for `CC(N/C(=N\C#N)Nc1ccncc1)C(C)(C)C.O` (configuration not stated), the IC50 is more than 46 µM.

Consider `CCCCC`, for which the IC50 was more than 46 µM.

In turn, `CN1C(=O)C(=NNC(N)=S)c2ccccc21` had an IC50 of more than 46 µM.

`COC(C)(C)CCCC(C)C/C=C/C(C)=C/C(=O)OC(C)C` (configuration not stated) yielded a 50% inhibitory concentration (IC50) of more than 46 µM.

With `CC[N+](CC)(CCNC(=O)C(=O)NCC[N+](CC)(CC)Cc1ccccc1Cl)Cc1ccccc1Cl.[Cl-].[Cl-]`, the 50% inhibitory concentration (IC50) was more than 46 µM.

`O=P(CC(N2C[C@H]([C@H]3CCCCC3)C[C@H]2[C@@](O)=O)=O)(OC(OC(CC)=O)C(C)C)CCCCC1=CC=CC=C1` (some centres not stated) gave an IC50 of more than 46 µM.

As for `Cc1cc(O)c(C(C)C)cc1Cl`, the IC50 was more than 46 µM.

In turn, `O=C(O)CCCCC1CCSS1` (configuration not stated) displayed an IC50 of more than 46 µM.

Take `CNC(=O)OCc1cccc(COC(=O)NC)n1`: the IC50 was more than 46 µM.

On to `O.O=C(/C=C/C(O)c1ccc(Cl)cc1)[O][Na]` (configuration not stated), for which the IC50 was more than 46 µM.

`O=c1[nH]cc(F)c(=O)[nH]1` registered an IC50 of more than 46 µM.

In the case of `O=C(NCN1CCOCC1)c1cnccn1`, the IC50 is more than 46 µM.

`C[Si](C)(C)O[Si](C)(C)C` registered a half-maximal inhibitory concentration (IC50) of more than 46 µM.

Consider `Cc1ccc(C(=O)C(C)CN2CCCCC2)cc1.Cl` (configuration not stated), for which the half-inhibitory concentration (IC50) is more than 46 µM.

In turn, `CCC1C2CC3[C@@H]4N(C)c5ccccc5C45CC(C2[C@H]5O)N3[C@@H]1O` (some centres not stated) displayed an IC50 of more than 46 µM.

As to `CC(C)(C)CC(C)(C)c1ccc(OCCO)cc1`, the IC50 is more than 46 µM.

With `OC1=C(C=C(/C=C(C#N)/C#N)C=C1)O`, the half-inhibitory concentration (IC50) was more than 46 µM.

`COc1ccc(-c2noc(CC(=O)O)c2-c2ccc(OC)cc2)cc1`: the IC50 was more than 46 µM.

With `CS(=O)(=O)c1ccc([C@@H](O)[C@@H](CO)NC(=O)C(Cl)Cl)cc1`, the half-maximal inhibitory concentration (IC50) was more than 46 µM.

Regarding `NS(=O)(=O)c1cc(C(=O)O)cc(N2CCCC2)c1Oc1ccccc1`, the IC50 is more than 46 µM.

In the case of `ClCc1ccccc1.O=C1C[C@@H]2OCC=C3CN4CC[C@]56c7ccccc7N1[C@H]5[C@H]2[C@H]3C[C@H]46`, the IC50 was more than 46 µM.

Compound `CC(=O)NCCCCCC(=O)O` displayed an IC50 of more than 46 µM.

For `O=C1N(C(C(O)=O)=C(CSC4=NN=NN4C)CS2)[C@@]2([H])[C@@]([H])1NC([C@@H]([C@@](C=C5)=CC=C5O)NC(C3=C(O)C=C(C)N=C3)=O)=O`, the IC50 was more than 46 µM.

As for `COCCCC/C(=N\OCCN)c1ccc(C(F)(F)F)cc1`, the IC50 was more than 46 µM.

In turn, `O=C3N1/C(=C(\CS[C@@H]1[C@@H]3NC(=O)Cc2cccs2)C[n+]4ccccc4)C([O-])=O` came in with an IC50 of more than 46 µM.

As to `NC(=O)CN1CC(O)CC1=O` (configuration not stated), the IC50 is more than 46 µM.

Compound `CCC(=O)c1c(O)cc(O)cc1O` came in with an IC50 of more than 46 µM.

With `CC(=O)O[C@H]1CC[C@H]2[C@@H]3CCC4=CC(=O)CCC4=C3C=C[C@]12C`, the 50% inhibitory concentration (IC50) is more than 46 µM.

`O=C(O)/C=C/c1ccccc1` had an IC50 of more than 46 µM.

`C[C@]12CCC(=O)C=C1CC[C@@H]1[C@@H]2[C@@H](O)C[C@@]2(C)[C@H]1CC[C@]2(O)C(=O)COP(=O)([O-])[O-].[Na+].[Na+]` showed a half-maximal inhibitory concentration (IC50) of more than 46 µM.

For `OC[C@H]1O[C@@H]2O[C@H]3[C@H](O)[C@@H](O)[C@@H](O[C@H]4[C@H](O)[C@@H](O)[C@@H](O[C@H]5[C@H](O)[C@@H](O)[C@@H](O[C@H]6[C@H](O)[C@@H](O)[C@@H](O[C@H]7[C@H](O)[C@@H](O)[C@@H](O[C@H]8[C@H](O)[C@@H](O)[C@@H](O[C@H]1[C@H](O)[C@H]2O)O[C@@H]8CO)O[C@@H]7CO)O[C@@H]6CO)O[C@@H]5CO)O[C@@H]4CO)O[C@@H]3CO`, the IC50 was more than 46 µM.

`O=[C@](COC(C(C)(C)C)=O)[C@@H]2[C@](CC1)(C)[C@](CC2)([H])[C@@](CC4)([H])[C@@]1([H])[C@](CC3)(C)C4=CC3=O` displayed an IC50 of more than 46 µM.

Turning to `N=C\2/N=C3/O[C@H]1[C@H](O)[C@@H](CO)O[C@H]1N3/C=C/2`, the IC50 was more than 46 µM.

In turn, `COC(=O)c1ccccc1O` came in with an IC50 of more than 46 µM.

Compound `Cc1cccc(C)c1NC(=O)CN1CCCCCC1` registered an IC50 of more than 46 µM.

In turn, `CCCCC(CC)CN1CN(CC(CC)CCCC)CC(C)(N)C1` (configuration not stated) registered an IC50 of more than 46 µM.

Turning to `OCC1(CO)COC(C(Cl)(Cl)Cl)OC1`, the IC50 is more than 46 µM.

For `Oc1ccc(C2CNCCc3c2cc(O)c(O)c3Cl)cc1` (configuration not stated), the IC50 was more than 46 µM.

In turn, `CCN(CC)CCOC(=O)C(c1ccccc1)c1ccccc1.Cl` had an IC50 of more than 46 µM.

`O=C(CCBr)N1CCN(C(=O)CCBr)CC1`: the IC50 was more than 46 µM.

With `Cc1cc(C(=O)NCCc2ccc(S(=O)(=O)NC(=O)NN3CCCCCC3)cc2)no1`, the IC50 is more than 46 µM.

Consider `O[C@@H]([C@H](C)NC)[C@@]1=CC=CC=C1.Cl`, for which the IC50 was more than 46 µM.

Take `c1csc(C2(N3CCCCC3)CCCCC2)c1`: the IC50 is more than 46 µM.

`NP(N)(=O)NC(=O)c1ccc(F)cc1`: the IC50 was more than 46 µM.

For `NC[C@H]1O[C@H](O[C@H]2[C@H](O)[C@@H](O[C@H]3O[C@H](CO)[C@@H](O)[C@H](N)[C@H]3O)[C@H](N)C[C@@H]2N)[C@H](N)C[C@@H]1O`, the concentration for half-maximal inhibition (IC50) is more than 46 µM.

`C[C@]12N[C@H](Cc3ccccc31)c1ccccc12.O=C(O)/C=C\C(=O)O` showed an IC50 of more than 46 µM.

Compound `CC1(C)O[C@@H]2CC3C4C[C@H](F)C5=CC(=O)C=C[C@]5(C)C4[C@@H](O)C[C@]3(C)[C@]2(C(=O)CO)O1` (some centres not stated) showed an IC50 of more than 46 µM.

On to `CC(C)NCC(O)c1cc(O)cc(O)c1.CC(C)NCC(O)c1cc(O)cc(O)c1.O=S(=O)(O)O` (configuration not stated), for which the IC50 is more than 46 µM.

Compound `CC/C=C\C/C=C\C/C=C\CCCCCCCC(=O)O` registered an IC50 of more than 46 µM.

Turning to `O=P1(NCCCl)OCCCN1CCCl` (configuration not stated), the IC50 was more than 46 µM.

`COc1ccccc1N1CCN(CC(O)COc2cccc3ccccc23)CC1` (configuration not stated) registered an IC50 of more than 46 µM.

Regarding `CCC(C(=O)OCCN(CC)CC)c1ccccc1` (configuration not stated), the IC50 is more than 46 µM.

For `CCOc1ccc(NC(=S)Nc2ccc(OCC)cc2)cc1`, the IC50 is more than 46 µM.

Turning to `[C@]13([C@@](C(=O)CO)(CC[C@H]1[C@@H]2CCC=4[C@@]([C@H]2[C@H](C3)O)(\C=C/C(C=4)=O)C)O)C`, the IC50 was more than 46 µM.

With `CCOC(=S)SSC(=S)OCC`, the IC50 was more than 46 µM.

The compound `O=C(O)c1ccc2[nH]cc(CCCCN3CC=C(c4ccccc4)CC3)c2c1` came in with an IC50 of more than 46 µM.

The compound `CCCC1C(=O)N2C(N(C)C)=Nc3ccc(C)cc3N2C1=O` (configuration not stated) had an IC50 of more than 46 µM.

Compound `Nc1nnc(-c2cccc(Cl)c2Cl)c(N)n1` displayed an IC50 of more than 46 µM.

`Cc1nnc2n1-c1ccc(Cl)cc1C(c1ccccc1)=NC2` returned a 50% inhibitory concentration (IC50) of more than 46 µM.

`O=C1c2c(O)cccc2[C@H]([C@@H]2O[C@H](CO)[C@@H](O)[C@H](O)[C@H]2O)c2cc(CO)cc(O)c21`: the concentration for half-maximal inhibition (IC50) was more than 46 µM.

`Cc1cc2c(OCC(CNC(C)(C)C)OC(=O)c3ccccc3)cccc2[nH]1` (configuration not stated) displayed an IC50 of more than 46 µM.

On to `CN(C)CC/C=C1\c2ccccc2COc2ccccc21.Cl`, for which the IC50 is more than 46 µM.

The compound `Cc1ccccc1C(OCCN(C)C)c1ccccc1.O=C(O)CC(O)(CC(=O)O)C(=O)O` (configuration not stated) displayed an IC50 of more than 46 µM.

Compound `CC(C)CC(N(C)C)C1(c2ccc(Cl)cc2)CCC1.Cl` (configuration not stated) gave an IC50 of more than 46 µM.

The compound `[O-]S(=O)(=O)OC.C[N+]1(C)CC\C(CC1)=C(\c2ccccc2)c3ccccc3` registered an IC50 of more than 46 µM.

`Cc1oc(=O)oc1CN1CCN(c2cc3c(cc2F)c(=O)c(C(=O)O)c2n3C(C)S2)CC1` (configuration not stated) came in with an IC50 of more than 46 µM.

In turn, `CC(=O)N(CC(C)C(=O)O)c1c(I)cc(I)c(N)c1I` (configuration not stated) yielded a 50% inhibitory concentration (IC50) of more than 46 µM.

In turn, `O=C(Nc1ccc([N+](=O)[O-])cc1)Nc1ccc([N+](=O)[O-])cc1` gave an IC50 of more than 46 µM.

On to `ClCC1CO1` (configuration not stated), for which the IC50 is more than 46 µM.

`CCCCCCNC(=O)n1cc(F)c(=O)[nH]c1=O` gave an IC50 of more than 46 µM.

With `C1CCC(NC2CCCCC2)CC1`, the IC50 was more than 46 µM.

`Cl.c1ccc(CN(CC2=NCCN2)c2ccccc2)cc1` yielded an IC50 of more than 46 µM.

Take `CCCCCCCC(=O)O`: the IC50 is more than 46 µM.

Compound `O=C1Nc2ccc(Cl)cc2C(c2ccccc2Cl)=NC1O` (configuration not stated) gave an IC50 of more than 46 µM.

For the compound `C[C@]12C=CC(=O)C=C1CC[C@H]1[C@@H]3C[C@@H](O)[C@](O)(C(=O)CO)[C@@]3(C)C[C@H](O)[C@@]12F`, the IC50 is more than 46 µM.
